1 substance from PMC9321894, “Design and Anticancer Properties of New Water-Soluble Ruthenium–Cyclopentadienyl Complexes” (Pharmaceuticals, 2022) can be followed below.

Data set [1] concerns HT29 colon cancer cells. Description: MTT cytotoxicity assay, HT29. The conditions noted are these: HT29, 72 h, mean ± SD n = 3. The data set is classed as cell-based, human. On the procedure: The cytotoxic activity of all complexes was screened against A2780 (ovarian, Sigma-Aldrich, Lisboa, Portugal), MDAMB231 (breast, triple negative, ATCC), and HT29 (colon, ATCC) human cancer cells. Cells were grown in RPMI 1640 (A2780) or DMEM containing GlutaMax-I (MDAMB231), or McCoy’s (HT29) supplemented with 10% FBS and 1% penicillin/streptomycin (Invitrogen, Lisboa, Portugal). All cell lines were kept in a CO2 incubator (Heraeus, Hanau, Germany) with 5% CO2 at 37 °C in a humidified atmosphere. Cell viability was measured using the colorimetric MTT (3-(4,5-dimethylthiazol-2-yl)-2,5-diphenyltetrazolium bromide) assay. For the assays, cells were seeded in 200 μL of complete medium in 96-well plates and incubated at 37 °C for 24 h prior to complex treatment to allow cell adherence. The stock solutions in water (20 mM) of the complexes were freshly prepared and used for sequential dilutions in medium within the concentration range of 10^−10–10^−4 M. Cisplatin was also included in this study as a positive control. After careful removal of the medium, […] of a serial dilution of compounds in fresh medium was added to the cells, and incubation was carried out for 72 h at 37 °C. At the end of the treatment, the medium was discarded, and the cells were incubated with […] of an MTT solution in PBS (0.5 mg mL^−1). After 3 h incubation, medium was removed, and DMSO was added to solubilize the purple formazan crystals formed. The absorbance at 570 nm was measured using a plate spectrophotometer (Power Wave Xs, Bio-Tek, Winooski, VT, USA). Each experiment was repeated at least three times and each concentration tested in at least six replicates. The IC50 values were calculated from dose–response curves analyzed with the GraphPad Prism software (version 5.0).
On the technique in general: Formazan colour is commonly taken as a measure of viable cells.

Data set [2] in a line: Solubility in water. The data set is classed as physicochemical. As to conditions: in presence of air, 25 °C.
Data set [3] has as its target T1, human serum albumin (HSA) (Homo sapiens, UniProt P02768).
T1 construct: purchased Sigma-Aldrich A1653
Description: Fluorescence quenching of HSA (Trp214). The data set is classed as binding. The conditions noted are these: for KSV: pH 7.4. The procedure:
Human serum albumin (HSA) was dissolved in 10 mM HEPES buffer (pH 7.4). The HSA concentration was determined spectrophotometrically using the absorbance value at 280 nm (ε280 = 36,500 M^−1cm^−1). Complex 6 was dissolved in 10 mM HEPES buffer (pH 7.4). A series of ruthenium-protein batch solutions were prepared by adding different concentrations of ruthenium solutions to the protein solution prepared previously. For fluorescence acquisition, the final HSA concentration was 2.5 μM, and the ruthenium were 0, 0.6, 1.2, 1.8, 2.5, 5, 7.5, 10, 12.5, 15, 17.5, 20, 22.5, 25, 27.5, 30, 32.5, 35, 37.5, 40, 42.5, and 45 μM. […] The reference solutions were prepared following the procedures described above without protein.
Steady-state fluorescence measurements were carried out with a Fluorolog Model-3.22 spectrofluorometer from Horiba Jobin Yvon at 293.15, 298.15, and 310.15 K. All measurements were performed in Hellma® semi-micro fluorescence cuvettes (Suprasil® quartz, path length 10 × 4 mm, chamber volume […]) with the 10 mm path length for the excitation of the sample. The excitation and emission slit widths were fixed at 4.0 nm, and the excitation wavelength was set at 295 nm to selectively excite the tryptophan 214 residue. The emission spectra were recorded from 305 to 550 nm. Solutions of ruthenium complex in 10 mM HEPES buffer pH 7.4 in corresponding concentrations were used as reference for the measured fluorescence spectra of protein-complex mixtures. […] The fluorescence intensities were corrected for the absorption of the exciting light and re-absorption of the emitted light to decrease the inner filter effect using UV–visible absorption data recorded for each sample on a Jasco V-660 spectrophotometer in the range of 260 to 900 nm with 1 cm path quartz cells.
Fluorescence quenching of HSA by complex [Ru(η5-C5H5)(mTPPMS)(bopy)][CF3SO3] (6) […]
F0 = 1 + K τ (Q) = 1 + K (Q) (S1) where F0 and F are the fluorescence intensities of HSA in the absence and presence of the quencher [Ru(η5-C5H5)(mTPPMS)(bopy)][CF3SO3]; [Q] is the quencher concentration; Kq is the bimolecular quenching constant; t0 is the average fluorescence lifetime of HSA in the absence of the quencher, and KSV is the Stern-Volmer quenching constant.
Figure S10. Stern-Volmer plots at pH7.4 for the quenching of (A) HSA and (B) HSA faf by [Ru(η5-C5H5)(mTPPMS)(bopy)][CF3SO3] at three temperatures (◆) 293 K, (●) 298 K, (▲) 310 K.
log(F0 − F) = log K + nlog[Q] ( S2) […]
where Ka is the association constant for a site and n is the number of binding sites by protein.
Figure S11. Double-log plots for the fluorescence quenching for the (A) {HSA-[Ru(η5-C5H5)(mTPPMS)(bopy)][CF3SO3]} and (B) {HSAfaf-[Ru(η5-C5H5)(mTPPMS)(bopy)][CF3SO3]} systems at three temperatures (◆) 293 K, (●) 298 K, (▲) 310 K. […]

A short description of data set [4]: n-Octanol/water partition coefficient, shake-flask method. It counts as physicochemical. As to conditions: room temperature. On the procedure:
The lipophilicity of the complexes was measured by the shake-flask method. Distilled water and n-octanol were mixed vigorously for 24 h at 25 °C, to promote solvent saturation in both phases, before the experiments. […] Aliquots of stock solutions were equilibrated with octanol for 4 h in a mechanical shaker. The phase ratio was 2 mL/2 mL (water/n-octanol). The aqueous and octanol layers were carefully separated (by centrifugation at 5000 rpm for 10 min), and UV–vis absorption spectra of the compounds were registered in both phases. The concentration for each sample was determined using the calibration curve. Triplicate experiments have been performed for each complex and the averages were calculated.

T1 sequence (P02768 25-609): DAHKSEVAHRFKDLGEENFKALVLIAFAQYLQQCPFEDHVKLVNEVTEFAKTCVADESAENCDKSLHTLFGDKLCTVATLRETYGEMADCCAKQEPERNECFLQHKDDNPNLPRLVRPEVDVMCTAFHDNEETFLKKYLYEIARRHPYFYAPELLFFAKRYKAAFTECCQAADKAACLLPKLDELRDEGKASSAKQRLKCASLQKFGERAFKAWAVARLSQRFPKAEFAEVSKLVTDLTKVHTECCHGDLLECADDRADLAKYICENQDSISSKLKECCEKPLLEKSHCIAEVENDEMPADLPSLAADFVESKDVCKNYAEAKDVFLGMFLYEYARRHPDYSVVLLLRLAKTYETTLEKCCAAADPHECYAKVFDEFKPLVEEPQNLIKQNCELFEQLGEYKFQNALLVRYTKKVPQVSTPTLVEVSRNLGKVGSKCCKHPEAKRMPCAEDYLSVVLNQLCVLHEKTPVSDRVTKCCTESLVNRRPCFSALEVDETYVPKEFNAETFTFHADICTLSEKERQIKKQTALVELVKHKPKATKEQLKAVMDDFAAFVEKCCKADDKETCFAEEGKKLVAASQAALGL

As for “[RuCp(mTPPMSNa)(bopy)][CF3SO3] [Compound 6]”, in data set [1], the IC50 (in general, the concentration that gives 50% inhibition) is 72.4 ± 50 µM. Further, the “S(H2O)” value in data set [2] is 15.3 mg/mL. Moreover, the “S(H2O)” value in data set [2] (value in brackets) is 0.015 M. Moreover, in data set [3] (293.15 K), the “Ka (association constant for a site)” value was “(38.806 ± 1.26) × 10^4 L mol^−1”, the Kq result was “(7.91 ± 0.10) × 10^12 L mol^−1 s^−1”, the “n (number of binding sites)” value was 1.136 and the ΔG is -17.3 kcal/mol. Moreover, in data set [3] (293.15 K), the KSV result was “(7.91 ± 0.10) × 10^4 L mol^−1”. Also, in data set [3] (298.15 K), the “Ka (association constant for a site)” value was “(19.467 ± 1.14) × 10^4 L mol^−1”, the Kq result was “(8.73 ± 0.12) × 10^12 L mol^−1 s^−1”, the “n (number of binding sites)” value is given as 1.053 and the ΔG is -17.64 kcal/mol. Besides, the KSV entry in data set [3] (298.15 K) is given as “(8.73 ± 0.12) × 10^4 L mol^−1”. Besides, in data set [3] (310.15 K), the “Ka (association constant for a site)” value was “(13.948 ± 1.15) × 10^4 L mol^−1”, the Kq entry is “(10.4 ± 0.15) × 10^12 L mol^−1 s^−1”, the “n (number of binding sites)” value is 0.994 and the ΔG is -18.47 kcal/mol. The KSV result in data set [3] (310.15 K) is “(10.4 ± 0.15) × 10^4 L mol^−1”. For the same substance, in data set [3] (Van't Hoff, 293.15-310.15 K), the ΔH is 11.99 (R^2 = 0.9963) kJ mol^−1 and the ΔS is reported as 287.92 J mol^−1 K^−1. The “Quenching of fluorescence intensity” value in data set [3] (highest Ru concentration (45 μM), pH 7.4, incubation at 298 K for 24 h) is 75%. Also, the “Log Po/w” value in data set [4] is 5.68 ± 0.05.
